Test results from ChEMBL document CHEMBL3861981 (J Med Chem, 2016).

Assays:
[1] = Toxicity in dog at 20 to 200 mg/kg administered as single dose; type: organism-based, Canis lupus familiaris; settings: in vivo
[2] = Inhibition of recombinant full length HCV genotype 4a ED43 NS3/4A protease preincubated for 30 mins followed by substrate addition measured by FRET assay; design: species or system Hepatitis C virus ED43
[3] = Half life in cannulated Sprague-Dawley rat plasma at 5 mg/kg, iv administered as 10 mins infusion by LC/MS/MS analysis; type: ADME, organism-based
[4] = Cardiotoxicity in rabbit heart assessed as change in sinoatrial node recovery time at 10 uM perfused for 20 mins measured for 1 min by electrophysiology method relative to control; type: toxicity, tissue-based, Oryctolagus cuniculus
[5] = Inhibition of recombinant full length HCV genotype 6a HK-6A NS3/4A protease preincubated for 30 mins followed by substrate addition measured by FRET assay; design: species or system Hepatitis C virus subtype 6a
Neutrophil elastase = target: T1, Neutrophil elastase (Homo sapiens, UniProt P08246); assay: Inhibition of human leukocyte elastase
T1 sequence (P08246 whole entry): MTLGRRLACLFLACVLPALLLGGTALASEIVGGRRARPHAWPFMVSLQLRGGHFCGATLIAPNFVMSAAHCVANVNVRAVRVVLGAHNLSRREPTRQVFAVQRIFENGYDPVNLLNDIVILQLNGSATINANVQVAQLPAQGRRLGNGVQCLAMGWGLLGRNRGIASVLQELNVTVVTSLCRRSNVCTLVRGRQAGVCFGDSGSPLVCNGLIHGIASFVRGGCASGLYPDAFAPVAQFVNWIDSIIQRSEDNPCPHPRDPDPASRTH

[6] = Cardiotoxicity in rabbit heart assessed as change in heart rate at 10 uM perfused for 60 mins measured every 10 mins during perfusion by electrophysiology method relative to control; type: toxicity, tissue-based, Oryctolagus cuniculus; settings: 1 h
[7] = Inhibition of recombinant full length HCV genotype 5a SA13 NS3/4A protease preincubated for 30 mins followed by substrate addition measured by FRET assay; design: species or system Hepatitis C virus SA13
[8] = Inhibition of recombinant full length HCV genotype 2b HC-J8 NS3/4A protease preincubated for 30 mins followed by substrate addition measured by FRET assay; design: species or system Hepatitis C virus subtype 2b
[9] = Cardiotoxicity in rabbit heart assessed as change in sinoatrial node recovery time at 10 uM perfused for 60 mins measured every 10 mins during perfusion by electrophysiology method relative to control; type: toxicity, tissue-based, Oryctolagus cuniculus; settings: 1 h
[10] = Cardiotoxicity in dog assessed as prolongation of QTcv interval at 30 to 100 mg/kg administered as single dose by electrophysiology assay; type: toxicity, organism-based, Canis lupus familiaris; settings: in vivo
Hepatitis C virus = assay: Antiviral activity against HCV genotype 2a JHF-1 in HCV replicon cells assessed as reduction in viral RNA replication by luciferase reporter gene assay; settings: genotype 2a JFH-1
[11] = Oral bioavailability in Beagle dog plasma at 3 mg/kg administered via gavage measured up to 24 hrs post dose by LC/MS/MS analysis; type: ADME, organism-based, Canis lupus familiaris; settings: beagle, plasma
[12] = Half life in Beagle dog plasma at 1 mg/kg, iv administered as 5 mins infusion by LC/MS/MS analysis; type: ADME, organism-based, Canis lupus familiaris
[13] = Cardiotoxicity in dog assessed as effect on PR interval at 30 to 100 mg/kg administered as single dose by electrophysiology assay; type: toxicity, organism-based, Canis lupus familiaris; settings: in vivo
[14] = Oral bioavailability in cynomolgus monkey plasma at 10 mg/kg administered via gavage measured up to 24 hrs post dose by LC/MS/MS analysis; type: ADME, organism-based, Macaca fascicularis; settings: plasma
[15] = AUC in cannulated Sprague-Dawley rat plasma at 15 mg/kg administered via oral gavage measured up to 24 hrs post dose by LC/MS/MS analysis; type: ADME, organism-based; design: dose 15 mg/kg, time < 24 hr, route oral
[16] = Plasma concentration in rabbit at 30 mg/kg, iv administered as 10 mins infusion measured after 60 mins; type: ADME, organism-based, Oryctolagus cuniculus
Genome polyprotein = Genome polyprotein (GB virus-B, UniProt Q69422); assay: Inhibition of GBV-B NS3 protease
Salmonella typhimurium [17] = assay: Genotoxicity in Salmonella typhimurium in presence of S9 fraction by Ames test; type: toxicity, organism-based; settings: salmonella enterica subsp. enterica serovar typhimurium
[18] = Oral bioavailability in cannulated Sprague-Dawley rat plasma at 15 mg/kg administered via gavage measured up to 24 hrs post dose by LC/MS/MS analysis; type: ADME, organism-based
[19] = Inhibition of recombinant full length HCV genotype 3a S52 NS3 protease in genotype 2a replicon cells by luciferase reporter gene assay; type: cell-based; settings: Hepatitis C virus
[20] = Cytotoxicity against human MRC5 cells assessed as decrease in cell viability
Salmonella typhimurium [21] = assay: Genotoxicity in Salmonella typhimurium in absence of S9 fraction by Ames test; type: toxicity, organism-based; settings: salmonella enterica subsp. enterica serovar typhimurium
Rattus norvegicus = assay: Toxicity in rat at 30 to 300 mg/kg administered as single dose; type: organism-based; settings: in vivo
[22] = Cardiotoxicity in anesthetized rabbit assessed as effect on PR interval at 30 mg/kg, iv administered as 10 mins infusion measured up to 60 mins post dose by electrophysiology assay; type: toxicity, organism-based, Oryctolagus cuniculus; settings: in vivo
[23] = Cytotoxicity against human HEK293T cells assessed as decrease in cell viability
[24] = Drug uptake in cannulated Sprague-Dawley rat liver at 15 mg/kg administered via oral gavage measured at 24 hrs post dose by LC/MS/MS analysis; type: ADME, organism-based; settings: read-out: Drug uptake
[25] = Cardiotoxicity in dog assessed as prolongation of QTcf interval at 30 to 100 mg/kg administered as single dose by electrophysiology assay; type: toxicity, organism-based, Canis lupus familiaris; settings: in vivo
[26] = Inhibition of recombinant full length HCV genotype 2b HC-J8 NS3 protease in genotype 2a replicon cells by luciferase reporter gene assay; type: cell-based, Hepatitis C virus subtype 2b; settings: Hepatitis C virus
[27] = Half life in cynomolgus monkey plasma at 3 mg/kg, iv administered as 5 mins infusion by LC/MS/MS analysis; type: ADME, organism-based, Macaca fascicularis
[28] = AUC in Beagle dog plasma at 3 mg/kg administered via oral gavage measured up to 24 hrs post dose by LC/MS/MS analysis; type: ADME, organism-based, Canis lupus familiaris; design: dose 3 mg/kg, time < 24 hr, route oral
[29] = Clearance in Beagle dog plasma at 1 mg/kg, iv administered as 5 mins infusion measured up to 24 hrs post dose by LC/MS/MS analysis; type: ADME, organism-based, Canis lupus familiaris
[30] = Cytotoxicity against human HeLa cells assessed as decrease in cell viability
[31] = Inhibition of recombinant full length HCV genotype 1b J4L6S NS3/4A protease preincubated for 30 mins followed by substrate addition measured by FRET assay; design: species or system Hepatitis C virus subtype 1b
[32] = Cardiotoxicity in rabbit heart assessed as change in heart rate at 10 uM perfused for 20 mins measured for 1 min by electrophysiology method relative to control; type: toxicity, tissue-based, Oryctolagus cuniculus
[33] = Cardiotoxicity in dog assessed as effect on QRS interval at 30 to 100 mg/kg administered as single dose by electrophysiology assay; type: toxicity, organism-based, Canis lupus familiaris; settings: in vivo
[34] = Inhibition of recombinant full length HCV genotype 3a S52 NS3/4A protease preincubated for 30 mins followed by substrate addition measured by FRET assay; design: species or system Hepatitis C virus S52
Homo sapiens = species on record: Homo sapiens; assay: Inhibition of sodium channel (unknown origin) at 10 uM at 4 Hz by patch clamp assay
[35] = Cytotoxicity against human HuH7 cells assessed as decrease in cell viability
[36] = Cardiotoxicity in dog assessed as effect on heart rate at 30 to 100 mg/kg administered as single dose by electrophysiology assay; type: toxicity, organism-based, Canis lupus familiaris; settings: in vivo
[37] = Inhibition of recombinant full length HCV genotype 4a ED43 NS3 protease in genotype 1b con1 replicon cells by luciferase reporter gene assay; settings: Hepatitis C virus

Sequence of Genome polyprotein (Q69422 941-1564 limits assumed): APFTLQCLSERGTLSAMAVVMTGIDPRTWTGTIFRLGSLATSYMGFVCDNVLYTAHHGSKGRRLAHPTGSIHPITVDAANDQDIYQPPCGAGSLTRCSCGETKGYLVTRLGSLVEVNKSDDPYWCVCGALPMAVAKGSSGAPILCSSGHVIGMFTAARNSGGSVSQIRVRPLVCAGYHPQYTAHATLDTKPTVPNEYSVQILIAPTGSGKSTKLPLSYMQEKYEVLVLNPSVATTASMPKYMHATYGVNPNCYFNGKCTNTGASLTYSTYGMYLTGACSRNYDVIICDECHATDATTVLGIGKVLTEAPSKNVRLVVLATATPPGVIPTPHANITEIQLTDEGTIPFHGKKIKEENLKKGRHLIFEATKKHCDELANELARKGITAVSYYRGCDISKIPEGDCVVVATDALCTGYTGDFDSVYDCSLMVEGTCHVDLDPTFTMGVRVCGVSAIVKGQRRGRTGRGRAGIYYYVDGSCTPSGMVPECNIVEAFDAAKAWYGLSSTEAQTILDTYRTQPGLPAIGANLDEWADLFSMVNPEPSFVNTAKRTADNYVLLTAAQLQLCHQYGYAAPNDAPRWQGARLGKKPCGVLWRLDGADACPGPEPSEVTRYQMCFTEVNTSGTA

## COc1cnc(O[C@@H]2C[C@@H](C(=O)N[C@]3(C(=O)NS(=O)(=O)C4CC4)C[C@H]3C3CC3)N(C(=O)[C@@H](NC(=O)O[C@H](C)C(F)(F)F)C3CCCCC3)C2)c2cc(Cl)ccc12
[1]
  Activity: Non-Toxic
[2]
  IC50: 6 nM
[3]
  half-life: 8.6 h
[4]
  Activity: -3%
[5]
  IC50: 3.4 nM
Neutrophil elastase
  IC50: 21000 nM
[6]
  Activity: -16%
[7]
  IC50: 4.1 nM
[8]
  IC50: 220 nM
[9]
  Activity: 22%
[10]
  Activity: Non-Toxic
Hepatitis C virus
  EC50: 136 nM
[11]
  bioavailability: 57.5%
[12]
  half-life: 5.1 h
[13]
  Activity: Non-Toxic
[14]
  bioavailability: 15.4%
[15]
  AUC at 24 h: 21.1 µM·h
[16]
  concentration at 1 h: 253 µM
Genome polyprotein
  IC50: > 25000 nM
Salmonella typhimurium [17]
  Activity: Non-Toxic
[18]
  bioavailability: 86.4%
[19]
  EC50: 1650 nM
[20]
  CC50: 8000 to 14000 nM
Salmonella typhimurium [21]
  Activity: Non-Toxic
Rattus norvegicus
  Activity: Non-Toxic
[22]
  Activity: Non-Toxic
[23]
  CC50: 8000 to 14000 nM
[24]
  concentration at 24 h: 51 µM
[25]
  Activity: Non-Toxic
[26]
  EC50: 562 nM
[27]
  half-life: 6.1 h
[28]
  AUC at 24 h: 8.3 µM·h
[29]
  clearance: 4.3 mL/min/kg
[30]
  CC50: 8000 to 14000 nM
[31]
  IC50: 1.6 nM
[32]
  Activity: -11%
[33]
  Activity: Non-Toxic
[34]
  IC50: 1400 nM
Homo sapiens
  inhibition: 46.4%
[35]
  CC50: 8000 to 14000 nM
[36]
  Activity: Non-Toxic
[37]
  EC50: 2.8 nM
